Laboratory results as given in PMC4730229, “Benzobisthiazoles Represent a Novel Scaffold for Kinase Inhibitors of CLK Family Members” (Biochemistry, 2015).

Legend:
Format in all cases: biochemical
[1] = target: T1, Dyrk1A (Homo sapiens, UniProt Q13627); assay: Kinase profiling (radioactive filter binding); conditions: for DYRK1A activity in kinase profiling: 1 uM compound; for inhibition at 1 µM: 1 μM compound, read-out: inhibitory activity toward DYRK1A in kinase panel
T1 construct: purchased Invitrogen PV3785

[2] = target: CLK2 (Homo sapiens, UniProt P49760); assay: Kinase inhibition assay, IC50; set-up: cDNA encoding the CLK2 catalytic domain (CLK2cd, amino acids 140–496); made in house; host or cells: Escherichia coli BL21(DE3)-R3-lambda-PPase; conditions: relative to 3A5
[3] = target: CAMKKb (Homo sapiens, UniProt Q96RR4); assay: Kinase profiling (radioactive filter binding); conditions: 1 uM compound
Experimental: (§1) 3A5 and 5E4 were sent to the International Centre for Kinase Profiling at the MRC Protein Phosphorylation and Ubiquitylation Unit for profiling (as described in ref ([17])). Compounds were profiled against 140 kinases using a radioactive ([^33P]ATP) filter binding assay at a concentration of 1 μM. Results were obtained as inhibition of kinase activity and are listed in Supplementary Table 2.

[4] = target: MNK1 (Homo sapiens, UniProt Q9BUB5); assay: Kinase profiling (radioactive filter binding); conditions: 1 uM compound
Experimental: as §1

[5] = target: ABL (Homo sapiens, UniProt P00519); assay: Kinase profiling (radioactive filter binding); conditions: 1 uM compound
Experimental: as §1

[6] = target: CAMK1 (Homo sapiens, UniProt Q14012); assay: Kinase profiling (radioactive filter binding); conditions: 1 uM compound
Experimental: as §1

[7] = target: YES1 (Homo sapiens, UniProt P07947); assay: Kinase profiling (radioactive filter binding); conditions: 1 uM compound
Experimental: as §1

[8] = target: MEKK1 (Homo sapiens, UniProt Q13233); assay: Kinase profiling (radioactive filter binding); conditions: 1 uM compound
Experimental: as §1

[9] = target: EPH-A4 (Homo sapiens, UniProt P54764); assay: Kinase profiling (radioactive filter binding); conditions: 1 uM compound
Experimental: as §1

[10] = target: ROCK 2 (Rattus norvegicus, UniProt Q62868); assay: Kinase profiling (radioactive filter binding); conditions: 1 uM compound
Experimental: as §1

[11] = target: p38b MAPK (Homo sapiens, UniProt Q15759); assay: Kinase profiling (radioactive filter binding); conditions: 1 uM compound
Experimental: as §1

[12] = target: ERK5 (Homo sapiens, UniProt Q13164); assay: Kinase profiling (radioactive filter binding); conditions: 1 uM compound
Experimental: as §1

[13] = target: TTBK1 (Homo sapiens, UniProt Q5TCY1); assay: Kinase profiling (radioactive filter binding); conditions: 1 uM compound
Experimental: as §1

[14] = target: CDK2-Cyclin A (Homo sapiens, UniProt P24941); assay: Kinase profiling (radioactive filter binding); conditions: 1 uM compound
Experimental: as §1

[15] = target: PRK2 (Homo sapiens, UniProt Q16513); assay: Kinase profiling (radioactive filter binding); conditions: 1 uM compound
Experimental: as §1

[16] = target: PDGFRA (Homo sapiens, UniProt P16234); assay: Kinase profiling (radioactive filter binding); conditions: 1 uM compound
Experimental: as §1

[17] = target: MARK3 (Homo sapiens, UniProt P27448); assay: Kinase profiling (radioactive filter binding); conditions: 1 uM compound
Experimental: as §1

[18] = target: SIK3 (Homo sapiens, UniProt Q9Y2K2); assay: Kinase profiling (radioactive filter binding); conditions: 1 uM compound
Experimental: as §1

[19] = target: Src (Homo sapiens, UniProt P12931); assay: Kinase profiling (radioactive filter binding); conditions: 1 uM compound
Experimental: as §1

[20] = target: PAK4 (Homo sapiens, UniProt O96013); assay: Kinase profiling (radioactive filter binding); conditions: 1 uM compound
Experimental: as §1

[21] = target: CK2 (Homo sapiens, UniProt P68400); assay: Kinase profiling (radioactive filter binding); conditions: 1 uM compound
Experimental: as §1

[22] = target: p38d MAPK (Homo sapiens, UniProt O15264); assay: Kinase profiling (radioactive filter binding); conditions: 1 uM compound
Experimental: as §1

[23] = target: PLK1 (Homo sapiens, UniProt P53350); assay: Kinase profiling (radioactive filter binding); conditions: 1 uM compound
Experimental: as §1

[24] = tested on: firefly luciferase; assay: Luciferase inhibition assay (Kinase-Glo, no kinase); conditions: compound at 10 μM
Experimental: For analysis of luciferase inhibition, 10 μL of luciferase reagent (Kinase-Glo, Promega) was added to 10 μL of a mixture consisting of 1 μM ATP and 5 μM S6K and 10 μM compound (potential kinase inhibitor) in buffer A in the absence of kinase and incubated for 10 min at room temperature in a white well plate before the luminescence was read. The percentage of inhibition is equal to (luminescence in the assay without compound – luminescence in the assay with compound)/(luminescence in the assay without compound) × 100.

PDGFRA, sequence (P16234 24-1089): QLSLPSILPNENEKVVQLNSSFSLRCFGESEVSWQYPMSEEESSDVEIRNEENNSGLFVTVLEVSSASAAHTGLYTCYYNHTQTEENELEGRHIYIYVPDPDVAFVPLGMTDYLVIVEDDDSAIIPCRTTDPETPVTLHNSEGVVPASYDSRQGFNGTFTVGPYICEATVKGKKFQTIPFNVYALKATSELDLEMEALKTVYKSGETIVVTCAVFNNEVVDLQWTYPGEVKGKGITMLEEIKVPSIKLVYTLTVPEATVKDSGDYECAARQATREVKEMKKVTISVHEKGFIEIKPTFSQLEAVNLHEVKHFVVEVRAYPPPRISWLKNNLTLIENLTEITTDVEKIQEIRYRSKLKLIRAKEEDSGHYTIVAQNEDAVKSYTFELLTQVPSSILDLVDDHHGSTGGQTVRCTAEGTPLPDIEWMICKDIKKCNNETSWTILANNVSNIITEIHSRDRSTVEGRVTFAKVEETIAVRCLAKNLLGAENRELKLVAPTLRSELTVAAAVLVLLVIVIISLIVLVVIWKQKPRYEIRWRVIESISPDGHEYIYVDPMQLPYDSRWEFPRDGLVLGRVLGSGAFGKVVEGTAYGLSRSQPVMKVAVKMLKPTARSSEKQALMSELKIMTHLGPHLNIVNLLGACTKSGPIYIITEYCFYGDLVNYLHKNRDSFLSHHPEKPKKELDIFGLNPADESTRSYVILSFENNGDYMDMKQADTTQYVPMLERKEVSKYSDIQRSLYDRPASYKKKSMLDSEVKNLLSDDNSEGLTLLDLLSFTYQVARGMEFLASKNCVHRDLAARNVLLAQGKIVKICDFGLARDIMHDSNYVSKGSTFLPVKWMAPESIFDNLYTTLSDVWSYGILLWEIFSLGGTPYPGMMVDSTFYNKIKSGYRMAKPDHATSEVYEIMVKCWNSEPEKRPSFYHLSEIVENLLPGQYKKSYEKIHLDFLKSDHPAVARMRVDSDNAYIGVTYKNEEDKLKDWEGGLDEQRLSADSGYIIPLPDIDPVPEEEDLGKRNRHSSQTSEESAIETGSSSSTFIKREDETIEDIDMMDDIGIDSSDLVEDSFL
p38d MAPK, sequence (O15264 whole entry): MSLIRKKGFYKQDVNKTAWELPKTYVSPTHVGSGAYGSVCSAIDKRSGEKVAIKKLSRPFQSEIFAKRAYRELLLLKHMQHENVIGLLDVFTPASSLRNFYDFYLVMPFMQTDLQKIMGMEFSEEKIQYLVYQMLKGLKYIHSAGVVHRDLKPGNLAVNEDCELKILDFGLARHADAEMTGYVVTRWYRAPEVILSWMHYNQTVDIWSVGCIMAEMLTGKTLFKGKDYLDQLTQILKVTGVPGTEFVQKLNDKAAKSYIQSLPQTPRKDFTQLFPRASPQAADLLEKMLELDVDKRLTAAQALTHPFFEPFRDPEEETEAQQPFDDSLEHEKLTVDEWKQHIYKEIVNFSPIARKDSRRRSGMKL
Src, sequence (P12931 whole entry): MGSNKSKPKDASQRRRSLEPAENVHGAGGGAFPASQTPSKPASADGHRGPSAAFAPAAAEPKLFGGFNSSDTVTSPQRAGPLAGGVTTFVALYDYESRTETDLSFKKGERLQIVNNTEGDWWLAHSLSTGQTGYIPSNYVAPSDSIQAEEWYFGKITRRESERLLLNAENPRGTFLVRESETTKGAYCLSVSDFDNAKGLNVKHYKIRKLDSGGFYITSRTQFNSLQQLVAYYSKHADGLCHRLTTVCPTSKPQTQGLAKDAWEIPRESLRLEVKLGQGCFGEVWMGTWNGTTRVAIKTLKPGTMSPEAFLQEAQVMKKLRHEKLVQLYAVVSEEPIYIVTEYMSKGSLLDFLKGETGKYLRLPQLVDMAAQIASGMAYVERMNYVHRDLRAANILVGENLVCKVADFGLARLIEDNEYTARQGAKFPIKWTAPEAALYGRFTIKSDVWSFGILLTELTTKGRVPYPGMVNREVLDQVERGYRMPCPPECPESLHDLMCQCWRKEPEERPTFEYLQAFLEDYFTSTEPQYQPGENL
TTBK1, sequence (Q5TCY1 whole entry): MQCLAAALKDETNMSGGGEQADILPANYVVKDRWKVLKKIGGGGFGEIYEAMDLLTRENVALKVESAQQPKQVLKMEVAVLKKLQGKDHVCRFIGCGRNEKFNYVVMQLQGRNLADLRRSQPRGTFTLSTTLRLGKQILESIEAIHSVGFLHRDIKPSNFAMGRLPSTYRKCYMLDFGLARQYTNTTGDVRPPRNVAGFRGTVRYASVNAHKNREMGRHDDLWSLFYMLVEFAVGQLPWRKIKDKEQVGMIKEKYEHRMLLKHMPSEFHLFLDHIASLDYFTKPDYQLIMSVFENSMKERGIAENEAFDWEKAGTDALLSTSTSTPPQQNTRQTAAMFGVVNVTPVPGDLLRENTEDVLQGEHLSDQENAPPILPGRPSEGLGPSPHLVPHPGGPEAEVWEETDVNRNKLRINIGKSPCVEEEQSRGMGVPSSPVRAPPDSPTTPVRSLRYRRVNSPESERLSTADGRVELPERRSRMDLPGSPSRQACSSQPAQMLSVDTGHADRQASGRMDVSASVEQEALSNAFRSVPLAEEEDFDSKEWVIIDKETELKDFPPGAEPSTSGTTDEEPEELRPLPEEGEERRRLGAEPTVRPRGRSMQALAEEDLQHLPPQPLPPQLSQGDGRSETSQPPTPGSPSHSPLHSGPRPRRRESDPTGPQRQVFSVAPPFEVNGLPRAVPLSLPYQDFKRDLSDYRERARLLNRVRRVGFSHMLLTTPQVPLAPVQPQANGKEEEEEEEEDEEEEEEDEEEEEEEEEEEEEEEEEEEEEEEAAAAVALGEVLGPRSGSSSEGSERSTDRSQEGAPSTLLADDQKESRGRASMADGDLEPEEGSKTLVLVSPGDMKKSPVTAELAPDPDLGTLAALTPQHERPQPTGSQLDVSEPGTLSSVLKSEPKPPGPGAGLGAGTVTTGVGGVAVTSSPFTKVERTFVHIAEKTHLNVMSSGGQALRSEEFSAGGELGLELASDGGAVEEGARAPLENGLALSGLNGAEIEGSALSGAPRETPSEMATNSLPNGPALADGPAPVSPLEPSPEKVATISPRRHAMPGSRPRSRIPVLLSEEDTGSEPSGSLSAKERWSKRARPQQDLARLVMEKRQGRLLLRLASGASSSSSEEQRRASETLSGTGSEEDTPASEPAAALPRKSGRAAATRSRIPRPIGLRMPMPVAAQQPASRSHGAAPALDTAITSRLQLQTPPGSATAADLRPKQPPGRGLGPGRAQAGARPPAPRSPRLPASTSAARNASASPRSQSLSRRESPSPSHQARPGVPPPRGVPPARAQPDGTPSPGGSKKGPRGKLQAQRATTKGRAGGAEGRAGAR
PRK2, sequence (Q16513 whole entry): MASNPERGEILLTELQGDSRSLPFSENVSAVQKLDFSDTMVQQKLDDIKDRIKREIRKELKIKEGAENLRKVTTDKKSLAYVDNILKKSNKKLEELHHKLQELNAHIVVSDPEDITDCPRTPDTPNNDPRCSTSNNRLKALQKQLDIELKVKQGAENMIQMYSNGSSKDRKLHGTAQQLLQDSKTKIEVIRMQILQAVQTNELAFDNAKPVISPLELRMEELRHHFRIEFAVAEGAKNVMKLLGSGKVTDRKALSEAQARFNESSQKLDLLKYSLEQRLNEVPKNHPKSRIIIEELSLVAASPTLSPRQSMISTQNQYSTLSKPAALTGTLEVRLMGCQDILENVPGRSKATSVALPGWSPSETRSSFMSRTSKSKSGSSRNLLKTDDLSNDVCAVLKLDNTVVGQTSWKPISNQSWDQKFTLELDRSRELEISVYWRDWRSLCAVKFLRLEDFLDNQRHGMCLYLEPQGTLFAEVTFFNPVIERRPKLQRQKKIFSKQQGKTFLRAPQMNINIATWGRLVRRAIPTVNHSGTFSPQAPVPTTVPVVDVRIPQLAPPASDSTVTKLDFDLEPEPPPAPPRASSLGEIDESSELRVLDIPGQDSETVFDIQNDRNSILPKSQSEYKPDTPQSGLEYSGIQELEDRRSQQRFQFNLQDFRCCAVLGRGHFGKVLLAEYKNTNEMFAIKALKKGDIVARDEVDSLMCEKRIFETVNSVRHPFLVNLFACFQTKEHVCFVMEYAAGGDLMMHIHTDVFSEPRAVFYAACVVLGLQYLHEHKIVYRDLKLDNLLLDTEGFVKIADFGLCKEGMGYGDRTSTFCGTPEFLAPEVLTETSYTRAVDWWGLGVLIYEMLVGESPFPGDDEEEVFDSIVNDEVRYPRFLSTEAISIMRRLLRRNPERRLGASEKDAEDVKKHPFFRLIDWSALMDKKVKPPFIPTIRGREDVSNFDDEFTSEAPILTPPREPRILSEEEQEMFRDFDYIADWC
ROCK 2, sequence (Q62868 2-543 limits assumed): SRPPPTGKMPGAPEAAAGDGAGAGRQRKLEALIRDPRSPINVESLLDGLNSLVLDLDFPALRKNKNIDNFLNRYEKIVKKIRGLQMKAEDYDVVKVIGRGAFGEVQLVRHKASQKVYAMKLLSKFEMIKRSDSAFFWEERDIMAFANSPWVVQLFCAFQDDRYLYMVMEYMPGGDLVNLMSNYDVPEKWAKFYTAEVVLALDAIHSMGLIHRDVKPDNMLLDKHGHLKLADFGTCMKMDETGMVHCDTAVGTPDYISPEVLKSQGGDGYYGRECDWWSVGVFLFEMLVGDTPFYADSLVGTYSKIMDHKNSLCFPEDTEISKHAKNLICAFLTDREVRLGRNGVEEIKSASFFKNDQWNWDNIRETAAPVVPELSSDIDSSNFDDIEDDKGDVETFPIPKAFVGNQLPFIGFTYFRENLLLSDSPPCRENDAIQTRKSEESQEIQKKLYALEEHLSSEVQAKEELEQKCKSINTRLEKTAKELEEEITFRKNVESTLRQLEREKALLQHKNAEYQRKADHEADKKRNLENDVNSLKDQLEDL

Row | Compound | DYRK1A activity in kinase profiling [1] | inhibition at 1 µM [1] | CAMKKb activity in kinase profiling [3] | MNK1 activity in kinase profiling [4] | ABL activity in kinase profiling [5] | CAMK1 activity in kinase profiling [6] | YES1 activity in kinase profiling [7] | MEKK1 activity in kinase profiling [8] | EPH-A4 activity in kinase profiling [9] | ROCK 2 activity in kinase profiling [10] | p38b MAPK activity in kinase profiling [11] | ERK5 activity in kinase profiling [12] | TTBK1 activity in kinase profiling [13] | CDK2-Cyclin A activity in kinase profiling [14] | PRK2 activity in kinase profiling [15] | PDGFRA activity in kinase profiling [16] | MARK3 activity in kinase profiling [17] | SIK3 activity in kinase profiling [18] | Src activity in kinase profiling [19] | PAK4 activity in kinase profiling [20] | further results
1 | CSc1nc2ccc3nc(NC(=O)c4ccco4)sc3c2s1 [5E4, N-[7-(methylsulfanyl)[1,3]thiazolo[4,5-g][1,3]benzothiazol-2-yl]-2-furamide] | 3 | 97% | 91 | 99 | 61 | 106 | 110 | 108 | 112 | 96 | 98 | 39 | 99 | 101 | 88 | 86 | 83 | 79 | 79 | 74 | decrease of inhibition against CLK2 compared to 3A5 [2]: 2–3 fold; CK2 activity in kinase profiling [21]: 77; p38d MAPK activity in kinase profiling [22]: 103; PLK1 activity in kinase profiling [23]: 102; % inhibition of luciferase [24]: 29.7 ± 2.9%
2 | Cc1nc2ccc3sc(NC(=O)c4ccc5ncsc5c4)nc3c2s1 [3A5, N-(2-methyl[1,3]thiazolo[5,4-e][1,3]benzothiazol-7-yl)-1,3-benzothiazole-6-carboxamide] | 16 | 84% | 98 | 109 | 102 | 85 | 112 | 79 | 120 | 68 | 100 | 39 | 101 | 115 | 95 | 91 | 91 | 84 | 89 | 84 | CK2 activity in kinase profiling [21]: 105; p38d MAPK activity in kinase profiling [22]: 105; PLK1 activity in kinase profiling [23]: 110; % inhibition of luciferase [24]: 6.7 ± 2.8%
